Results reported in ChEMBL document CHEMBL1201862, “PubChem BioAssay data set” (2004).
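Tested at 5 concentrations; 48 h exposure; 96-well plates; endpoints linearly interpolated, else capped at highest concentration. Abbreviation: GI50, concentration required for 50% inhibition of growth.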 The source made the active and inactive calls. No stated cut-off is given here; in the data, active = GI50 up to about 1.1 µM and inactive = higher.

Experiments:
Assay in all cases: NCI tumour cell line growth inhibition, 48 h
MCF7 = tested on: MCF7
IGROV-1 = tested on: IGROV-1
HOP-92 = tested on: HOP-92
Hs-578T = tested on: Hs-578T
SR = tested on: SR
OVCAR-3 = tested on: OVCAR-3
UACC-62 = tested on: UACC-62
SNB-19 = tested on: SNB-19
LOX IMVI = tested on: LOX IMVI
PC-3 = tested on: PC-3
786-0 = tested on: 786-0
MDA-MB-231 = tested on: MDA-MB-231
NCI-H460 = tested on: NCI-H460
T47D = tested on: T47D
RXF 393 = tested on: RXF 393
NCI-H23 = tested on: NCI-H23
EKVX = tested on: EKVX
RPMI-8226 = tested on: RPMI-8226
TK-10 = tested on: TK-10
MOLT-4 = tested on: MOLT-4
SF-268 = tested on: SF-268
SK-MEL-28 = tested on: SK-MEL-28
Malme-3M = tested on: Malme-3M
SF-539 = tested on: SF-539
K562 = tested on: K562
COLO 205 = tested on: COLO 205
BT-549 = tested on: BT-549
MDA-N = tested on: MDA-N
SW-620 = tested on: SW-620
HL-60 = tested on: HL-60
SN12C = tested on: SN12C
SNB-75 = tested on: SNB-75
CAKI-1 = tested on: CAKI-1
UO-31 = tested on: UO-31
KM12 = tested on: KM12
HCC 2998 = tested on: HCC 2998
NCI-H522 = tested on: NCI-H522
OVCAR-5 = tested on: OVCAR-5
A549 = tested on: A549
OVCAR-4 = tested on: OVCAR-4
MDA-MB-435 = tested on: MDA-MB-435
HCT-116 = tested on: HCT-116
SK-MEL-5 = tested on: SK-MEL-5
OVCAR-8 = tested on: OVCAR-8
M14 = tested on: M14
NCI-H226 = tested on: NCI-H226
HT-29 = tested on: HT-29
DU-145 = tested on: DU-145
SK-OV-3 = tested on: SK-OV-3
NCI/ADR-RES = tested on: NCI/ADR-RES
U-251 = tested on: U-251
HCT-15 = tested on: HCT-15
HOP-62 = tested on: HOP-62
ACHN = tested on: ACHN
SF-295 = tested on: SF-295
A498 = tested on: A498
UACC-257 = tested on: UACC-257
CCRF-CEM = tested on: CCRF-CEM
SK-MEL-2 = tested on: SK-MEL-2

In the case of `COc1ccc(-c2cc(-c3ccccc3)n(C3OC(COC(C)=O)C(OC(C)=O)C(OC(C)=O)C3OC(C)=O)c(=S)c2C#N)cc1` (centres undefined), the GI50 (MCF7) is reported as 25.4 µM (inactive), the GI50 (IGROV-1) is reported as 14.8 µM (inactive) and the GI50 (HOP-92) is reported as 4.39 µM (inactive). For the same compound, the GI50 (Hs-578T) was 5.71 µM (inactive), the GI50 (SR) was 13.6 µM (inactive) and the GI50 (OVCAR-3) was 11.4 µM (inactive). For the same compound, the GI50 (UACC-62) was 4.79 µM (inactive), the GI50 (SNB-19) was 11.1 µM (inactive) and the GI50 (LOX IMVI) was 4.51 µM (inactive). For the same compound, the GI50 (PC-3) was 12.4 µM (inactive), the GI50 (786-0) was 3.44 µM (inactive) and the GI50 (MDA-MB-231) was 4.79 µM (inactive). The GI50 (NCI-H460) was 7.48 µM (inactive), the GI50 (T47D) was 4.69 µM (inactive) and the GI50 (RXF 393) was 11.2 µM (inactive). For the same compound, the GI50 (NCI-H23) was 19.3 µM (inactive), the GI50 (EKVX) was 14.9 µM (inactive) and the GI50 (RPMI-8226) was 3.28 µM (inactive). The GI50 (TK-10) was 25.9 µM (inactive), the GI50 (MOLT-4) was 17.9 µM (inactive) and the GI50 (SF-268) was 14.2 µM (inactive). For the same compound, the GI50 (SK-MEL-28) was 12.6 µM (inactive), the GI50 (Malme-3M) was 5.87 µM (inactive) and the GI50 (SF-539) was 3.88 µM (inactive). The GI50 (K562) was 3.61 µM (inactive), the GI50 (COLO 205) was 11.3 µM (inactive) and the GI50 (BT-549) was 12.4 µM (inactive). The GI50 (MDA-N) was 8.05 µM (inactive), the GI50 (SW-620) was 13.9 µM (inactive) and the GI50 (HL-60) was 2.61 µM (inactive). The GI50 (SN12C) was 9.79 µM (inactive), the GI50 (SNB-75) was 6.38 µM (inactive) and the GI50 (CAKI-1) was 6.52 µM (inactive). The GI50 (UO-31) was 9.08 µM (inactive), the GI50 (KM12) was 16.9 µM (inactive) and the GI50 (HCC 2998) was 22.3 µM (inactive). The GI50 (NCI-H522) was 5.37 µM (inactive), the GI50 (OVCAR-5) was 15.7 µM (inactive) and the GI50 (A549) was 10.6 µM (inactive). For the same compound, the GI50 (OVCAR-4) was 2.6 µM (inactive), the GI50 (MDA-MB-435) was 6.89 µM (inactive) and the GI50 (HCT-116) was 6.07 µM (inactive). For the same compound, the GI50 (SK-MEL-5) was 6.71 µM (inactive), the GI50 (OVCAR-8) was 3.58 µM (inactive) and the GI50 (M14) was 8 µM (inactive). For the same compound, the GI50 (NCI-H226) was 5.87 µM (inactive), the GI50 (HT-29) was 6.28 µM (inactive) and the GI50 (DU-145) was 11.7 µM (inactive). For the same compound, the GI50 (SK-OV-3) was 18.8 µM (inactive), the GI50 (NCI/ADR-RES) was 11 µM (inactive) and the GI50 (U-251) was 6.79 µM (inactive). For the same compound, the GI50 (HCT-15) was 26.1 µM, the GI50 (HOP-62) was 3.81 µM (inactive) and the GI50 (ACHN) was 15.2 µM (inactive). For the same compound, the GI50 (SF-295) was 5.47 µM (inactive).

For `OCC12C3C4C5C3C1C5C42` (centres undefined), the GI50 (MCF7) was > 100 µM (inactive), the GI50 (IGROV-1) was 47.3 µM (inactive) and the GI50 (HOP-92) was > 100 µM (inactive). The GI50 (A498) was > 100 µM (inactive), the GI50 (Hs-578T) was > 100 µM (inactive) and the GI50 (SR) was > 100 µM (inactive). The GI50 (OVCAR-3) was > 100 µM (inactive), the GI50 (UACC-62) was > 100 µM (inactive) and the GI50 (SNB-19) was > 100 µM (inactive). For the same compound, the GI50 (LOX IMVI) was > 100 µM (inactive), the GI50 (PC-3) was > 100 µM (inactive) and the GI50 (786-0) was > 100 µM (inactive). The GI50 (MDA-MB-231) was > 100 µM (inactive), the GI50 (UACC-257) was > 100 µM (inactive) and the GI50 (NCI-H460) was > 100 µM (inactive). For the same compound, the GI50 (CCRF-CEM) was > 100 µM (inactive), the GI50 (T47D) was > 100 µM (inactive) and the GI50 (RXF 393) was > 100 µM (inactive). The GI50 (NCI-H23) was > 100 µM (inactive), the GI50 (EKVX) was > 100 µM (inactive) and the GI50 (TK-10) was > 100 µM (inactive). The GI50 (MOLT-4) was > 100 µM (inactive), the GI50 (SF-268) was > 100 µM (inactive) and the GI50 (SK-MEL-28) was > 100 µM (inactive). For the same compound, the GI50 (Malme-3M) was > 100 µM (inactive), the GI50 (SF-539) was > 100 µM (inactive) and the GI50 (K562) was > 100 µM (inactive). For the same compound, the GI50 (COLO 205) was > 100 µM (inactive), the GI50 (BT-549) was > 100 µM (inactive) and the GI50 (MDA-N) was > 100 µM (inactive). For the same compound, the GI50 (SW-620) was > 100 µM (inactive), the GI50 (HL-60) was > 100 µM (inactive) and the GI50 (SN12C) was > 100 µM (inactive). The GI50 (SNB-75) was > 100 µM (inactive), the GI50 (CAKI-1) was > 100 µM (inactive) and the GI50 (UO-31) was > 100 µM (inactive). For the same compound, the GI50 (NCI-H522) was > 100 µM (inactive), the GI50 (OVCAR-5) was > 100 µM (inactive) and the GI50 (A549) was > 100 µM (inactive). For the same compound, the GI50 (OVCAR-4) was > 100 µM (inactive), the GI50 (MDA-MB-435) was > 100 µM (inactive) and the GI50 (HCT-116) was > 100 µM (inactive). For the same compound, the GI50 (SK-MEL-5) was > 100 µM (inactive), the GI50 (OVCAR-8) was > 100 µM (inactive) and the GI50 (M14) was > 100 µM (inactive). For the same compound, the GI50 (NCI-H226) was > 100 µM (inactive), the GI50 (HT-29) was > 100 µM (inactive) and the GI50 (DU-145) was > 100 µM (inactive). The GI50 (SK-OV-3) was > 100 µM (inactive), the GI50 (NCI/ADR-RES) was > 100 µM (inactive) and the GI50 (U-251) was > 100 µM (inactive). The GI50 (HCT-15) was > 100 µM, the GI50 (HOP-62) was > 100 µM (inactive) and the GI50 (ACHN) was > 100 µM (inactive). For the same compound, the GI50 (SF-295) was > 100 µM (inactive) and the GI50 (SK-MEL-2) was > 100 µM (inactive).

For `O=C(/C=C/c1cccs1)c1cccc(C(=O)/C=C/c2cccs2)n1`, the GI50 (MCF7) was 1.25 µM (inactive), the GI50 (IGROV-1) was 27.7 µM (inactive) and the GI50 (HOP-92) was > 100 µM (inactive). The GI50 (Hs-578T) was 23.8 µM (inactive), the GI50 (SR) was 2.26 µM (inactive) and the GI50 (OVCAR-3) was 42.2 µM (inactive). The GI50 (UACC-62) was > 31.2 µM (inactive), the GI50 (SNB-19) was 19.3 µM (inactive) and the GI50 (LOX IMVI) was 2.05 µM (inactive). The GI50 (PC-3) was 36.3 µM (inactive), the GI50 (786-0) was 6.81 µM (inactive) and the GI50 (MDA-MB-231) was 63.2 µM (inactive). For the same compound, the GI50 (UACC-257) was > 100 µM (inactive), the GI50 (NCI-H460) was > 100 µM (inactive) and the GI50 (CCRF-CEM) was 2.82 µM (inactive). For the same compound, the GI50 (T47D) was 19.4 µM (inactive), the GI50 (RXF 393) was > 48.9 µM (inactive) and the GI50 (NCI-H23) was 31 µM (inactive). The GI50 (EKVX) was > 100 µM (inactive), the GI50 (RPMI-8226) was 2.97 µM (inactive) and the GI50 (TK-10) was > 100 µM (inactive). For the same compound, the GI50 (MOLT-4) was 2.29 µM (inactive), the GI50 (SF-268) was 21.5 µM (inactive) and the GI50 (SK-MEL-28) was 53.2 µM (inactive). For the same compound, the GI50 (Malme-3M) was > 100 µM (inactive), the GI50 (SF-539) was 6 µM (inactive) and the GI50 (K562) was 3.93 µM (inactive). For the same compound, the GI50 (COLO 205) was > 100 µM (inactive), the GI50 (BT-549) was 42.8 µM (inactive) and the GI50 (MDA-N) was 28.2 µM (inactive). For the same compound, the GI50 (SW-620) was 4.05 µM (inactive), the GI50 (HL-60) was 7.41 µM (inactive) and the GI50 (SN12C) was 19.9 µM (inactive). The GI50 (SNB-75) was 65.9 µM (inactive), the GI50 (CAKI-1) was 61.4 µM (inactive) and the GI50 (UO-31) was 21.3 µM (inactive). For the same compound, the GI50 (KM12) was 6.43 µM (inactive), the GI50 (HCC 2998) was > 100 µM (inactive) and the GI50 (NCI-H522) was 22.1 µM (inactive). For the same compound, the GI50 (OVCAR-5) was > 73.1 µM (inactive), the GI50 (A549) was > 84.3 µM (inactive) and the GI50 (OVCAR-4) was > 100 µM (inactive). For the same compound, the GI50 (MDA-MB-435) was 52.7 µM (inactive), the GI50 (HCT-116) was 2.82 µM (inactive) and the GI50 (SK-MEL-5) was > 100 µM (inactive). The GI50 (OVCAR-8) was 3.68 µM (inactive), the GI50 (M14) was > 91.2 µM (inactive) and the GI50 (NCI-H226) was > 100 µM (inactive). For the same compound, the GI50 (HT-29) was 6.21 µM (inactive), the GI50 (DU-145) was > 81.3 µM (inactive) and the GI50 (SK-OV-3) was > 100 µM (inactive). For the same compound, the GI50 (NCI/ADR-RES) was > 60 µM (inactive), the GI50 (U-251) was 9.1 µM (inactive) and the GI50 (HCT-15) was 24 µM. For the same compound, the GI50 (HOP-62) was 25.4 µM (inactive), the GI50 (ACHN) was 11.5 µM (inactive) and the GI50 (SF-295) was 76 µM (inactive). For the same compound, the GI50 (SK-MEL-2) was > 100 µM (inactive).
